# Publication PMC11755020 (Computational and Structural Biotechnology Journal, 2024)
# Target: T1, HNF4α (hepatocyte nuclear factor 4α) (Homo sapiens, UniProt P41235)
# T1 sequence (P41235 147-377 limits assumed): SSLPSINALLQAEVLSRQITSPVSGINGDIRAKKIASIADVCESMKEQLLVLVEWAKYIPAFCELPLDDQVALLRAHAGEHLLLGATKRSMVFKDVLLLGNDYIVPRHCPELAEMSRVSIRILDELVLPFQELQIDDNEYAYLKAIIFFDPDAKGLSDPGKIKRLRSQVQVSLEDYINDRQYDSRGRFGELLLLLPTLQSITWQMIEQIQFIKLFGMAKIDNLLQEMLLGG
# Assay: microscale thermophoresis
# Type: binding
row,SMILES,Kd [µM]
1,O=C(/C=C/c1ccc(O)c(O)c1)O[C@@H]1C[C@@](OC(=O)/C=C/c2ccc(O)c(O)c2)(C(=O)O)C[C@@H](O)[C@@H]1O [cynarin],3110
2,COc1c(/C=C/C(=O)c2ccc(O)cc2)ccc(O)c1O [licochalcone B],78.2
3,O=C(/C=C/c1ccc(O)c(O)c1)O[C@H](Cc1ccc(O)c(O)c1)C(=O)O [rosmarinic acid],34.9
